Key:
[1] = target: T1, His6 tagged human recombinant FABP4 (Homo sapiens, UniProt P15090); test: FABP4 TR-FRET assay: displacement of fluorescent fatty acid BODIPY FL C12; details: inhibition of BODIPY FL C12 binding to His6-FABP4; 1.2 μL of 1.085 mM compound in DMSO per well; triplicates, mean percent inhibition
T1 construct: purchased Cayman Chemicals 10009549
From the text: Activity of compounds with FABP4 was profiled using a Terbium (Tb) based time resolved fluorescence energy transfer (TR-FRET) assay. The assay measures the compound mediated displacement of the fluorescent fatty acid BODIPY FL C12 (Thermo Fisher; catalog number D3822) from His6 tagged human recombinant FABP4 (His6-FABP4; Cayman Chemicals, catalog number 10009549) via recording the energy transfer from TB donor molecule on anti-His6-tag antibody to acceptor BODIPY moiety. Briefly, compounds and BODIPY FL C12 were prepared at a concentration of 1.085 mM and 4.2 μM, respectively, in DMSO. 1.2 μL of each compound or DMSO (vehicle control) and 1.2 μL of BODIPY FL C12 were added into the wells of a 384-well black polypropylene plate. His6-FABP4 and Tb anti-His6 antibody were prepared in the assay buffer (25 mM Tris/HCl, pH 7.4, 0.4 mg/ml γ-globulins, 0.010% NP-40, 1 mM DTT) at a concentration of 83 nM and 49.6 nM, respectively. The protein and antibody solutions were then mixed at a ratio of 34:7 (v/v) and incubated on ice for 30 minutes. The assay was initiated by adding 41 μL of the resulting protein/antibody solution into the wells containing the compounds and BODIPY FL C12. The plate was centrifuged and incubated at room temperature for 10 min. The TR-FRET signals were recorded using an EnVision Multilabel plate reader (PerkinElmer; TB excitation 320 nm, BODIPY FL C12 emission 520 nm; TB emission 615 nm). Relative fluorescence ratio (520 nm*10,000/615 nm) were used to calculate the compound mediated inhibition of BODIPY C12 FL fatty acid binding to FABP4. The compounds were tested in triplicates and the results were represented as mean percent inhibition (compound*100/DMSO)±standard deviation (SD). Glucose consumption and FABP4 inhibition is shown below in Table 3 below. The compounds showing no inhibition of activity in the TR-FRET assay are marked as N.A. N.D. stands for “not determined”.

[2] = tested on: differentiated 3T3-L1 mouse adipocyte cells; test: Adipocyte glucose consumption in differentiated 3T3-L1 cells (colorimetric glucose assay of the medium); format: cell-based; details: 3T3-L1, 24 h, compound 10 μM, loss of glucose from culture medium, mean fold change (compound/DMSO)
Procedure: Activity of compounds on adipocyte glucose consumption was tested in differentiated 3T3-L1 mouse adipocyte cells. 3T3-L1 preadipocytes (ATCC) were routinely cultured in a growth medium composed of DMEM high-glucose (Sigma), 10% FBS (Gibco), 10 U/ml penicillin and 10 μg/ml streptomycin (P/S; Gibco). To induce adipogenic differentiation, a confluent layer of 3T3-L1 cells were incubated with the growth medium containing 2 μM rosiglitazone, 1 μM dexamethasone, 500 μM IBMX, and 1 μg/ml insulin (Sigma). Forty-eight (48) hours later (on day 2) and on days 4 and 6, medium of the cells was replaced with fresh medium containing 1 μg/ml insulin. On days 8 and 10, the medium was refreshed with regular growth medium and addition of insulin was omitted. On day 11, medium of the cells were 10 replaced with fresh medium containing either the indicated compounds (10 μM) or the vehicle in which the compounds were dissolved (DMSO). The final concentration of DMSO was 0.1% (v/v). Growth medium containing 0.1% DMSO was incubated in culture wells containing no cells and used as control. 24 hours later, medium was harvested and subjected to centrifugation at 10,000 g for 5 min. Glucose concentration in the supernatants was determined using a 15 colorimetric assay (Glucose Assay Kit I, Eton Biosciences). Glucose consumption in compound and vehicle treated cells was measured as loss of glucose from the culture medium and represented as mean fold change (compound/DMSO)±standard deviation (SD).

T1 sequence (P15090 whole entry): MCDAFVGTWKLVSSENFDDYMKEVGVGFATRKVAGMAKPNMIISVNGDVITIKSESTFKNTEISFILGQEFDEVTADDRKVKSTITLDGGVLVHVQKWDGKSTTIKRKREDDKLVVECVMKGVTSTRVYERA

For CN(CC(=O)O)c1cc(-c2ccncc2)c2cc(CCc3ccccn3)ccc2n1 [2-[methyl({6-[2-(pyridin-2-yl)ethyl]-4-(pyridin-4-yl)quinolin-2-yl})amino]acetic acid], the inhibition at 1085 µM (stock) [1] was 16.1% and the fold induction at 10 µM [2] was 1.06.
For O=C(O)C1CC(=O)N(c2cc(-c3ccccc3)c3cc(CCc4ccccc4)ccc3n2)C1 (stereo not drawn) [5-oxo-1-[4-phenyl-6-(2-phenylethyl)quinolin-2-yl]pyrrolidine-3-carboxylic acid], the inhibition at 1085 µM (stock) [1] was 7.89% and the fold induction at 10 µM [2] was 1.24.
For CCCCCCCCc1ccc2nc(N(C)CC(=O)O)cc(Oc3cccc(F)c3)c2c1 [2-{[4-(3-fluorophenoxy)-6-octylquinolin-2-yl](methyl)amino}acetic acid], the inhibition at 1085 µM (stock) [1] was 74.6% and the fold induction at 10 µM [2] was 1.32.
For CN(CC(=O)O)c1cc(-c2ccccc2)c2cc(CCCc3ccccc3)ccc2n1 [2-{methyl[4-phenyl-6-(3-phenylpropyl)quinolin-2-yl]amino}acetic acid], the inhibition at 1085 µM (stock) [1] was 97% and the fold induction at 10 µM [2] was 1.31.
For CCCCc1ccc2nc(N(C)C(C)CC(=O)O)cc(-c3ccccc3)c2c1 (stereo not drawn) [3-[(6-butyl-4-phenylquinolin-2-yl)(methyl)amino]butanoic acid], the inhibition at 1085 µM (stock) [1] was 103% and the fold induction at 10 µM [2] was 1.04.
With CCCCCCc1ccc2nc(N(CCC)CC(=O)O)cc(-c3ccc(F)cc3)c2c1 [2-{[4-(4-fluorophenyl)-6-hexylquinolin-2-yl](propyl)amino}acetic acid] the inhibition at 1085 µM (stock) [1] was 57.1% and the fold induction at 10 µM [2] was 1.13.
For CN(CC(=O)O)c1cc(-c2ccccc2)c2cc(CCc3ccc4nccnc4c3)ccc2n1 [2-[methyl({4-phenyl-6-[2-(quinoxalin-6-yl)ethyl]quinolin-2-yl})amino]acetic acid], the inhibition at 1085 µM (stock) [1] was 33.6% and the fold induction at 10 µM [2] was 1.33.
With O=C(O)C1CCCN1c1cc(-c2ccccc2)c2cc(Cl)ccc2n1 (stereo not drawn) [1-(6-chloro-4-phenylquinolin-2-yl)pyrrolidine-2-carboxylic acid] the inhibition at 1085 µM (stock) [1] was 105% and the fold induction at 10 µM [2] was 1.08.
CCCCC(=O)Nc1ccc2nc(N(C)CC(=O)O)cc(-c3ccccc3)c2c1 [2-[methyl(6-pentanamido-4-phenylquinolin-2-yl)amino]acetic acid] gave an inhibition at 1085 µM (stock) [1] of 28.7% and a fold induction at 10 µM [2] of 0.98.
For CCCCc1ccc2nc(N(C)CC(=O)O)cc(-c3cccc(O)c3)c2c1 [2-{[6-butyl-4-(3-hydroxyphenyl)quinolin-2-yl](methyl)amino}acetic acid], the inhibition at 1085 µM (stock) [1] was 83.8% and the fold induction at 10 µM [2] was 1.28.
O=C1NC(=O)C(Cc2cc(-c3ccccc3)c3cc(CCc4ccccc4)ccc3n2)S1 (stereo not drawn) [5-{[4-phenyl-6-(2-phenylethyl)quinolin-2-yl]methyl}-1,3-thiazolidine-2,4-dione] was tested, and the inhibition at 1085 µM (stock) [1] was 73.5% and the fold induction at 10 µM [2] was 1.45.
CCCCCCCCc1ccc2nc(N(C)CC(=O)O)cc(-c3ccccc3)c2c1 [2-[methyl(6-octyl-4-phenylquinolin-2-yl)amino]acetic acid] showed an inhibition at 1085 µM (stock) [1] of 99.3% and a fold induction at 10 µM [2] of 1.52.
Compound CCCCc1ccc2nc(OCC(=O)O)c(C(=O)O)c(-c3ccccc3)c2c1 [6-butyl-2-(carboxymethoxy)-4-phenylquinoline-3-carboxylic acid] has an inhibition at 1085 µM (stock) [1] of 44.6% and a fold induction at 10 µM [2] of 0.99.
CCCCCCc1ccc2nc(N(C)CC(=O)O)cc(N3CCC(F)(F)CC3)c2c1 [2-{[4-(4,4-difluoropiperidin-1-yl)-6-hexylquinolin-2-yl](methyl)amino}acetic acid] showed an inhibition at 1085 µM (stock) [1] of 53.7% and a fold induction at 10 µM [2] of 1.23.
CN(CC(=O)O)c1cc(-c2ccccc2)c2cc(CCc3cncnc3)ccc2n1 [2-[methyl({4-phenyl-6-[2-(pyrimidin-5-yl)ethyl]quinolin-2-yl})amino]acetic acid] gave an inhibition at 1085 µM (stock) [1] of 13.2% and a fold induction at 10 µM [2] of 1.22.
With CCCCCCc1ccc2nc(N(CC)CC(=O)O)cc(-c3ccc(F)cc3)c2c1 [2-{ethyl[4-(4-fluorophenyl)-6-hexylquinolin-2-yl]amino}acetic acid] the inhibition at 1085 µM (stock) [1] was 78.3% and the fold induction at 10 µM [2] was 1.27.
CCCCc1ccc2nc(OCC(=O)O)cc(-c3cccc(C#N)c3)c2c1 [2-{[6-butyl-4-(3-cyanophenyl)quinolin-2-yl]oxy}acetic acid] gave an inhibition at 1085 µM (stock) [1] of 36.2% and a fold induction at 10 µM [2] of 1.12.
CCCCCc1ccc2nc(OCC(=O)O)cc(-c3ccccc3)c2c1 [2-[(6-pentyl-4-phenylquinolin-2-yl)oxy]acetic acid] gave an inhibition at 1085 µM (stock) [1] of 55.1% and a fold induction at 10 µM [2] of 1.05.
CCCCc1ccc2nc(N3CCCC(C(=O)O)C3)cc(-c3cccc(C#N)c3)c2c1 (stereo not drawn) [1-[6-butyl-4-(3-cyanophenyl)quinolin-2-yl]piperidine-3-carboxylic acid] gave an inhibition at 1085 µM (stock) [1] of 24.3% and a fold induction at 10 µM [2] of 0.91.
CCCCCCc1ccc2nc(N(C)CC(=O)O)c(C)c(-c3ccc(F)cc3)c2c1 [2-([4-(4-fluorophenyl)-6-hexyl-3-methylquinolin-2-yl](methyl)amino}acetic acid] was tested, and the inhibition at 1085 µM (stock) [1] was 111% and the fold induction at 10 µM [2] was 1.19.
CN(CC(=O)O)c1cc(-c2ccccc2)c2cc(Cl)ccc2n1 [2-[(6-chloro-4-phenylquinolin-2-yl)(methyl)amino]acetic acid] showed an inhibition at 1085 µM (stock) [1] of 99.7% and a fold induction at 10 µM [2] of 1.14.
With CCCCCCCCc1ccc2nc(N(C)CC(=O)O)cc(Oc3cccnc3)c2c1 [2-{methyl [6-octyl-4-(pyridin-3-yloxy)quinolin-2-yl]amino}acetic acid] the inhibition at 1085 µM (stock) [1] was 83.6% and the fold induction at 10 µM [2] was 1.47.
CCCCCCc1ccc2nc(N(C)CC(C)C(=O)O)cc(-c3ccc(F)cc3)c2c1 (stereo not drawn) [3-{[4-(4-fluorophenyl)-6-hexylquinolin-2-yl](methyl)amino}-2-methylpropanoic acid] showed an inhibition at 1085 µM (stock) [1] of 92.3% and a fold induction at 10 µM [2] of 1.31.
CN(CC(=O)O)c1cc(-c2ccccc2)c2cc(CCc3cnc4ccccc4n3)ccc2n1 [2-[methyl({4-phenyl-6-[2-(quinoxalin-2-yl)ethyl]quinolin-2-yl})amino]acetic acid] was tested, and the inhibition at 1085 µM (stock) [1] was 33.6% and the fold induction at 10 µM [2] was 1.28.
Compound CN(CC(=O)O)c1cc(-c2ccccc2)c2cc(CCc3ccc4cccnc4c3)ccc2n1 [2-[methyl({4-phenyl-6-[2-(quinolin-7-yl)ethyl]quinolin-2-yl})amino]acetic acid] has an inhibition at 1085 µM (stock) [1] of 43.5% and a fold induction at 10 µM [2] of 1.25.
For CCCCCc1ccc2nc(N(C)CC(=O)O)cc(-c3cccc(C(N)=O)c3)c2c1 [2-{[4-(3-carbamoylphenyl)-6-pentylquinolin-2-yl](methyl)amino}acetic acid], the inhibition at 1085 µM (stock) [1] was 60.4% and the fold induction at 10 µM [2] was 1.04.
For CCCCCc1ccc2nc(N(C)CC(=O)O)cc(-c3cccc(C#N)c3)c2c1 [2-{[4-(3-cyanophenyl)-6-pentylquinolin-2-yl](methyl)amino}acetic acid], the inhibition at 1085 µM (stock) [1] was 65.1% and the fold induction at 10 µM [2] was 1.23.
For CCCCCCc1ccc2nc(N(C)CC(=O)O)cc(-c3cccnc3)c2c1 [2-{[6-hexyl-4-(pyridin-3-yl)quinolin-2-yl](methyl)amino}acetic acid], the inhibition at 1085 µM (stock) [1] was 71.3% and the fold induction at 10 µM [2] was 1.28.
CCCc1ccc2nc(OCC(=O)O)cc(-c3ccccc3)c2c1 [2-[(4-phenyl-6-propylquinolin-2-yl)oxy]acetic acid] showed an inhibition at 1085 µM (stock) [1] of 33.8% and a fold induction at 10 µM [2] of 0.99.
With CN(CC(=O)O)c1cc(-c2ccccc2)c2cc(CCc3ccc4c(c3)CCCN4)ccc2n1 [2-[methyl({4-phenyl-6-[2-(1,2,3,4-tetrahydroquinolin-6-yl)ethyl]quinolin-2-yl})amino]acetic acid] the inhibition at 1085 µM (stock) [1] was 44.7% and the fold induction at 10 µM [2] was 1.31.
